# Results taken from the RepoRT retention time repository (doi:10.1016/j.chroma.2019.01.023).
# Where a name gives a salt, the structure may show the parent alone.
# Key:
# Details in all cases: stereoisomer not certain
# [1] = HILIC, Merck SeQuant ZIC-pHILIC, 150 × 2.1 mm, 5 µm, 40 °C, 0.3 mL/min, estimated dead time 1.1 min; A: acetonitrile; B: water + 2.8 mM ammonium formate, pH 9; gradient (min/%B) 0/5 1/5 10/51 13/51 13.1/5 20/5
# [2] = RP, Phenomenex Kinetex C18, 150 × 2.1 mm, 1.7 µm, 30 °C, 0.3 mL/min, estimated dead time 1.1 min; A: water + 0.1% formic acid, pH 3; B: acetonitrile + 0.1% formic acid, pH 3; gradient (min/%B) 0/2 14/100 17/100 17.1/2 25/2
# [3] = HILIC, Waters ACQUITY UPLC BEH Amide, 150 × 2.1 mm, 1.7 µm, 40 °C, 0.5 mL/min, estimated dead time 0.66 min; A: 5% water + 95% acetonitrile; B: 70% water + 30% acetonitrile + 10 mM ammonium formate, pH 6.5; gradient (min/%B) 0/0 2/0 20/70 23/70 24/0 31/0
Structure (SMILES),LC retention time [1] [min],LC retention time [2] [min],LC retention time [3] [min]
"O=C(O)Cc1ccc(O)c(O)c1 [3,4-DIHYDROXYPHENYLACETATE]",7.81,3.93,
"O=C(O)c1cccc(O)c1[O-] [2,3-DIHYDROXYBENZOATE]",5.74,4.92,
Cc1cn(C2CC(O)C(COP(=O)(O)OP(=O)(O)OC3OC(CO)C(O)C(O)C3O)O2)c(=O)[nH]c1=O [DTDP-D-GLUCOSE],8.93,1.52,
CC(=O)N[C@@H]1[C@@H](O)[C@H](O)[C@@H](CO)O[C@H]1N [2-ACETAMIDO-2-DEOXY-BETA-D-GLUCOSYLAMINE],,9.58,
O=C([O-])C=CC(=O)[O-] [MALEATE],2.45,1.53,
"Nc1ncnc2c1ncn2C1OC(COP(=O)(O)O)C(OP(=O)(O)O)C1O (centres undefined) [ADENOSINE 3',5'-DIPHOSPHATE]",,1.36,
O=c1ccn(C2CC(O)C(COP(=O)(O)O)O2)c(=O)[nH]1 (centres undefined) [DEOXYURIDINE-MONOPHOSPHATE],8.2,1.41,
O=C(O)c1ccc2ccccc2c1[O-] [1-HYDROXY-2-NAPHTHOATE],1.49,9.28,
NC(CCC(=O)NC(CS)C(=O)NCC(=O)O)C(=O)O (centres undefined) [GLUTATHIONE REDUCED],8.59,1.46,
Oc1ccc(O)cc1 [HYDROQUINONE],6.29,4.46,
NC(=O)c1ccc[n+](C2OC(COP(=O)(O)OP(=O)(O)OCC3OC(n4cnc5c(N)ncnc54)C(OP(=O)(O)O)C3O)C(O)C2O)c1 (centres undefined) [NADP],,1.41,
CC(C(=O)O)C(=O)O [METHYLMALONATE],,2.19,
CCC(O)C(=O)[O-] (centres undefined) [2-HYDROXYBUTYRATE],,2.37,
O=C(O)C1CCCCN1 (centres undefined) [PIPECOLATE],,1.38,
C=C(CC(=O)O)C(=O)O [ITACONATE],,3.16,
O=S(=O)(O)Oc1c[nH]c2ccccc12 [INDOXYL SULFATE],,4.62,
Cc1ccc(O)c(O)c1 [4-METHYLCATECHOL],,3.31,

Structure (SMILES),LC retention time [1] [min],LC retention time [2] [min],LC retention time [3] [min]
CCCCCCCCCC(C)=O [2-UNDECANONE],,8.62,
NC(=O)c1ccc[n+](C2OC(COP(=O)(O)OP(=O)(O)OCC3OC(n4cnc5c(=O)[nH]cnc54)C(O)C3O)C(O)C2O)c1 (centres undefined) [NICOTINAMIDE HYPOXANTHINE DINUCLEOTIDE],,1.45,
CCC(C(=O)O)C(=O)O [ETHYLMALONATE],,3.46,
O=C([O-])Cc1ccccc1 [PHENYLACETATE],,3.97,
"NCC(N)C(=O)O (centres undefined) [2,3-DIAMINOPROPIONATE]",,2.37,
O=Cc1ccccc1 [BENZALDEHYDE],,3.93,
O=C(O)C1CCCN1 (centres undefined) [PROLINE],7.67,,8.55
O=C(O)Cc1cnc[nH]1 [4-IMIDAZOLEACETATE],8.13,,9.86
OCC1OC(OC2(CO)OC(CO)C(O)C2O)C(O)C(O)C1O (centres undefined) [SUCROSE],8.77,,10.2
NC(N)=NCCCC(N)C(=O)O (centres undefined) [ARGININE],3.62,,14.2
CN1CC(=O)NC1=N [CREATININE],5.92,,4.34
CC(=O)C1CCC2C3CC=C4CC(OS(=O)(=O)O)CCC4(C)C3CCC12C (centres undefined) [PREGNENOLONE SULFATE],,8.69,
NC(N)=NC(CC(=O)O)C(=O)O (centres undefined) [GUANIDINOSUCCINATE],9,,10.3
COC1OC(CO)C(O)C(O)C1O (centres undefined) [METHYL GALACTOSIDE],6.42,,4.01
OC1C(O)C(O)C(O)C(O)C1O (centres undefined) [MYOINOSITOL],9.47,,11
Cc1ncc(COP(=O)(O)O)c(C=O)c1O [PYRIDOXAL-PHOSPHATE],,1.5,
